Data on two compounds can be found in US20210317090A1, “AMINO ACID DEPLETION AGENTS AS ANTIPROLIFERATIVE AGENTS” (University of Central Florida Research Foundation, Inc., priority 2018, published 2021).

For data set [1], the system named is L3.6pl human pancreatic cancer cells. The data set can be described thus: Cytotoxicity dose-response (MTS) in L3.6pl cells. The data set is classed as cell-based. Conditions: L3.6pl cells, previously determined; read-out: 72 h IC50. How it is done: L3.6pl Studies. Compounds 9 and 10 were evaluated in the metastatic human pancreatic cancer cell line, L3.6pl. L3.6pl has a K-ras mutation, and high polyamine uptake activity.^7 A dose-response curve was obtained for each compound in L3.6pl cells to determine the 72 h L3.6pl IC50 value, described as the dose at which L3.6pl cells were 50% viable compared to the untreated control.
Regarding the biological studies performed in the following examples, it is noted that CHO K1, CHO-MG, and L3.6pl cells were grown in RPMI 1640 medium supplemented with 10% fetal bovine serum (FBS) and 1% penicillin/streptomycin. All cells were grown at 37° C. under a humidified 5% CO2 atmosphere. Aminoguanidine (1 mM used for CHO K1 and CHOMG cells and 250 μM for L3.6pl) was added to the growth medium to prevent oxidation of the compounds of the bovine serum amine oxidase enzyme that is present in calf serum. The cells used were in early to mid log phase and CHO and CHOMG were plated out at 1000 cells/well, whereas the L3.6pl cells were plated at 500 cells/well in a 96 well plate format.
This example illustrates aspects according to various embodiments pertaining to IC50 determinations and cell viability studies. Cell growth was assayed in sterile 96-well microtiter plates (Costar 3599, Corning, N.Y.). CHO K1 or CHOMG cells were plated at 1,000 cells/70 μL and L3.6pl cells at 500 cells/70 μL. The drug solutions of appropriate concentration in phosphate buffered saline (PBS) were added 10 μL per well after overnight incubation. After drug exposure (e.g., for 48 h for CHO K1 and CHO-MG and 48 h or 72 h for L3.6pl), cell growth was determined by measuring formazan formation from the 3-(4,5dimethylthiazol-2-yl)-5-(3-carboxymethoxyphenyl)-2-(4-sulfenyl)-2H tetrazolium, inner salt (MTS) using SynergyMx Biotek microplate reader for absorbance (490 nm) measurements.^27 All experiments were run in triplicate.

For data set [2], the system named is L3.6pl cells. The data set can be described thus: Intracellular polyamine and Ant-44 levels (N-dansylation, HPLC) in L3.6pl cells. As to conditions: Ant-44 only control (2 μM), 72 h. In kind it is cell-based, human. How it is done: One explanation for the enhanced potency was that compound 10 (1666.255) increased polyamine import and, as a result, may have increased intracellular Ant-44 levels. To test this hypothesis, L3.6pl cells were dosed with a fixed concentration of Ant-44 (2 μM) alone and in combination with increasing concentrations of compound 10 (1666.255) to explore how this combination therapy affected intracellular polyamine pools and Ant-44 import.
FIG. 7 is an example according to various embodiments, illustrating both single and combination therapies in L3.6pl cells with Ant-44 and compound 10 (1666.255) after 72 h incubation. Polyamine and Ant-44 levels (expressed as nmoles/mg protein) and relative % viability versus an untreated control were observed after 72 h incubation at 37° C. The untreated control was run in parallel and polyamine levels determined in duplicate and % cell viability in triplicate. Ant-44 was dosed at a fixed concentration of 2 μM and compound 10 (1666.255) at increasing concentrations. Cell viability tracked well with total intracellular polyamine levels (sum of putrescine, spermidine and spermine).
It was concluded that compound 10 was neither acting as a PTI nor as a polyamine import agonist. How then could it lead to intracellular polyamine depletion? […] To test this hypothesis, L3.6pl cells were dosed with increasing concentrations of compound 10 (1666.255) without Ant44. If compound 10 (1666.255) was acting on polyamine pools, one should see a reduction in total polyamine levels as well as decreased cell viability in a dose dependent manner upon increasing levels of 10. Therefore, the toxicity of compound 10 and intracellular polyamine levels after 72 h exposure to 10 were measured (FIG. 8).
FIG. 8 is an example according to various embodiments, illustrating intracellular polyamine levels (expressed as nmoles polyamine/mg protein) in L3.6pl cells dosed with increasing concentrations of compound 10 (1666.255) after cells were incubated for 72 h at 37° C. The untreated control was run in parallel and polyamine levels determined in duplicate via N-dansylation and HPLC. The data was averaged and reported as nmol polyamine (PA)/mg protein.
This example illustrates aspects according to various embodiments pertaining to a 72 h experiment with Compound 10 in L3.6pl cells. Ten milliliters of a cell suspension containing L3.6pl human pancreatic cancer cells (50,000 cells/mL) and aminoguanidine (1 mM) were placed in treated plastic Petri dishes (d=9 cm) and incubated overnight at 37° C. After 24 h, the cells were dosed with compound 10 at 2 μM, 5 μM, or 7 μM. (Note: Stock solutions of 10 at 2, 5, and 7 mM were dissolved in phosphate buffered saline (PBS) and were filtered through a 0.2 μm filter prior to use. The experiments were maintained with a total volume of 10.01 mL where 10 mL of the cell suspension was placed in a plastic dish and each compound or the equivalent PBS volume was added to make up the total volume 10.01 mL for each dish. For example, for the control experiment PBS (10 μL) was added to make up the total volume (10 mL+10 μL=10.01 mL). After 72 h incubation, the cells were collected first by pipetting off the supernatant containing floating dead cells from the culture dish as well as media and placing them into 15 mL tubes. The supernatant containing floating cells was centrifuged (4 min at 1,000 rpm). The cell-free supernatant (supernatant #1) was collected into a new 15 mL tube and quantified (˜8.6 mL) and was then stored frozen and was later quantified by LCMS to investigate the media composition of particular polyamine and amino acid analytes. The attached cells on the dish were washed with PBS (5 mL). The PBS wash was removed by suction and additional PBS (2 mL) was added and again suctioned off to provide twice-washed cells still adhered to the dish. Trypsin (2 mL) was then added to each dish and incubated (3-5 min) until all the cells were detached. Fresh media (8 mL) was added to quench the trypsin. […]

The test system of data set [3] is polyamine transport system (PTS). Conditions: CHO vs CHO-MG (ref 17); cited from earlier work.
Data set [4] has as its system L3.6pl human pancreatic cancer cells. As to conditions: L3.6pl cells, CDAP 100 μM (ref 10); cited from earlier work.
Data set [5] concerns L3.6pl cells. As to conditions: CDAP 100 μM (ref 10); cited from earlier work.

Each structure is given as a SMILES string.

Usually IC50 stands for the concentration at which inhibition is half-maximal. As to `Cl.NCCCCNCCCCNCc1c2ccccc2cc2ccccc12` [Ant-44, reference compound], in data set [1], the IC50 turned out to be 4 µM. Also, the “intracellular level of Ant-44” value in data set [2] came out at 2.15±0.10 nmol Ant44/mg protein. Also, the “preference for CHO cell line over CHO-MG (IC50 comparison)” value in data set [3] is given as around 150 fold.
As usually defined, the viability is the share of living cells, or the viability signal relative to a control. Regarding `NCCCNC1CCCCC1` [CDAP, N-(3-aminopropyl)-cyclohexylamine], in data set [4], the viability is 100%. The Intracellular Spermine entry in data set [5] is “no detectable spermine”.
